Test results published in US7682602B2, “Near-infrared fluorescent contrast medium” (Konica Minolta Medical & Graphic, Inc., priority 2003, dated 2010).

What was measured:
[1] = Water-solubility test of compound in normal saline solution; format: physicochemical; conditions: saline or isotonic, thermodynamic from solid, 0.5 mg in 1 ml normal saline solution, 42° C., precipitation or deposits
Method: In 1 ml of normal saline solution of an official grade was dissolved 0.5 mg of a dye (i.e., the cyanine compound to be tested) to make a solution.

[2] = system: tumor tissue of breast cancer mouse implanted in BALB/c nude mouse; assay: Fluorescent contrast imaging test in tumor-implanted nude mice; format: in vivo; design: key: A: fluorescence was clearly observed in the tumor portion; B: fluorescence was also observed in the normal portion but the tumor portion was discernible; C: the normal portion and the tumor portion emitted slight fluorescence but the tumor portion was barely discernible; D: slight fluorescence was emitted overall and the tumor portion was not discernible from the normal portion; E: no fluorescence was observed; conditions: 3 mg/kg through lactiferous duct and adenoid lobe; whole-body fluorescent imaging 30 min., 12 hr. and 24 hr. after dosage; fluorescence of tumor portion
Method: Model mice having breast cancer were prepared by dosing a carcinogene, 7,12-dimethylbenz[a]anthracene (DMBA) to an acceleratedly aged mice, SAMP6/Ta type mouse as one system of a so-called SAM type to cause breast cancer. Carcinogenesis was carried out in accordance with the description of JP-A No. 2003-033125. To each of 20 SAMP6/Ta type mice, DMBA was dosed in an amount of 0.5 mg/mouse·week, a total of six times. Solid high-protein, high-calorie CA-1 (available from CLEA Japan Inc.) was fed to the mice. After completion of the 6th dose of the carcinogenic substance, the dosage was stopped until the 20th month calculated from the 1st month. Breast cancer and lung metastasis were examined in the manner of pathologic histology.
A segment (2 mm×2 mm square) of tumor tissue of the foregoing breast cancer mouse was implanted below the skin of the breast in the left chest of a BALB/c nude mouse (5 weeks old, CLEA Japan Inc.). After 10 days, when the tumor has grown up to a diameter of approximately 5 mm, the foregoing mice were subjected to the fluorescent contrast imaging test. A titanium/sapphire laser was used as an exciting light source. The test mice in a darkened box were uniformly exposed to laser light using a ring-type light guide (available from Sumita Optical Glass Inc.) so that the dispersion of exposure fell within 2%. The irradiation output was adjusted so as to be about 38 μW/cm^2 near the skin surface of the mice. Fluorescence was emitted by excitation at the absorption peak wavelength of the respective compounds and fluorescent radiation from the mice was subjected to detection and imaging by using a CCD camera (C4880, produced by Hamamatsu Photonics K.K.) together with a filter to cut reflection of incident light at the shorter wavelength side. The exposure time was adjusted in accordance with the fluorescence intensity of the respective compounds. As to the tumor portion, the image obtained by attaching a marker onto the skin surface and observing it under white light was superposed onto the image obtained by removing the marker, followed by exposure to a laser light in the dark and evaluation was made with respect to fluorescence emitted from the tumor portion.
Each of the test compounds shown in Table 1 was dissolved in a normal saline solution (at 0.5 mg/ml) and dosed to the mice through a lactiferous duct and an adenoid lobe. The dose was 3 mg/kg for the respective test compounds. […]

[3] = Discharge in vitro of cyanine compound (urethra catheter, liquid chromatograph); design: species or system mouse; conditions: sum of discharge over one week after dosage; relative value, amount in vivo after dosage = 100
Method: Discharge in vitro of a cyanine compound of contrast medium material was determined by fitting a urethra with a catheter and summing up the discharge over one week after the dosage, and represented by a relative value, based on the amount in vivo of the cyanine compound after the dosage thereof being 100. The discharge of a cyanine compound was determined using liquid chromatograph 2010 (available from Shimazu Corporation).

Row | SMILES | solubility at 1 week [1] | Contrast Imaging [2] | Discharge in vitro (%) [3]
1 | CC12CCC(/C=C/C=C/C=C3\CCC4(C)C3=[N+](CC(O)CS(=O)(=O)[O-])c3cccnc34)=C1N(CC(O)CS(=O)(=O)O)c1cccnc12 (stereo not drawn) [Compound 12] | > 500 µg/mL | A | 99.0%
2 | CC12CCC(/C=C/C=C/C3=CC(=C4\CCC5(C)C4=[N+](CC(O)CS(=O)(=O)O)c4ccc(S(=O)(=O)[O-])cc45)/CCC3)=C1N(CC(O)CS(=O)(=O)O)c1ccc(S(=O)(=O)O)cc12 (stereo not drawn) [Compound 37] | > 500 µg/mL | A | 99.0%
3 | CC1(C)C(/C=C/C=C/C=C/C=C2/N(CCCCS(=O)(=O)[O-])c3ccc4ccccc4c3C2(C)C)=[N+](CCCCS(=O)(=O)[O-])c2ccc3ccccc3c21.[Na+] [Compound C-1, indoaniline green] | < 500 µg/mL | C | 99.0%
4 | CC1(C)C(/C=C/C=C/C=C/C=C2/N(CCCCS(=O)(=O)O)c3ccc4cc(S(=O)(=O)O)cc(S(=O)(=O)[O-])c4c3C2(C)C)=[N+](CCCCS(=O)(=O)O)c2ccc3cc(S(=O)(=O)O)cc(S(=O)(=O)O)c3c21 [Compound C-2] | > 500 µg/mL | B | 97.0%
